In patent US7928098B2, “Therapeutic and/or preventive agents for a sleep disorder” (Kyowa Hakko Kirin Co., Ltd., priority 2005, dated 2011):

Row | melting point | Structure (SMILES)
1 | 216 to 217 °C | O=C(Nc1nc(-c2ccco2)c(C(=O)c2ccccn2)s1)c1ccnc(N2CCOCC2)c1 [Compound 127, N-[4-(2-Furyl)-5-(pyridin-2-ylcarbonyl)thiazol-2-yl]-2-morpholinopyridine-4-carboxamide]
2 | 186 to 187 °C | Cc1ncccc1C(=O)Nc1nc(-c2ccco2)c(C(=O)c2ccccn2)s1 [Compound 129, N-[4-(2-Furyl)-5-(pyridin-2-ylcarbonyl)thiazol-2-yl]-2-methylpyridine-3-carboxamide]
3 | 210 to 215 °C | Cc1ccc(C(=O)Nc2nc(-c3ccco3)c(C(=O)c3ccccn3)s2)cn1 [Compound 130, N-[4-(2-Furyl)-5-(pyridin-2-ylcarbonyl)thiazol-2-yl]-2-methylpyridine-5-carboxamide]
4 | 245 to 248 °C | Cc1cncc(C(=O)Nc2nc(-c3ccco3)c(C(=O)c3ccccn3)s2)c1 [Compound 131, N-[4-(2-Furyl)-5-(pyridin-2-ylcarbonyl)thiazol-2-yl]-5-methylpyridine-3-carboxamide]
5 | 201 to 202 °C | COc1ccc(C(=O)Nc2nc(-c3ccco3)c(C(=O)c3ccccn3)s2)c(OC)n1 [Compound 132, N-[4-(2-Furyl)-5-(pyridin-2-ylcarbonyl)thiazol-2-yl]-2,6-dimethoxypyridine-3-carboxamide]
6 | 259 to 262 °C | O=C(Nc1nc(-c2ccco2)c(C(=O)c2ccccn2)s1)c1cncc(Br)c1 [Compound 134, 5-Bromo-N-[4-(2-furyl)-5-(pyridin-2-ylcarbonyl)thiazol-2-yl]pyridine-3-carboxamide]
7 | 270 to 274 °C | O=C(Nc1nc(-c2ccco2)c(C(=O)c2ccccn2)s1)c1ccnnc1 [Compound 135, N-[4-(2-Furyl)-5-(pyridin-2-ylcarbonyl)thiazol-2-yl]pyridazine-4-carboxamide]
8 | 150 to 154 °C | O=C(Nc1nc(-c2ccco2)c(C(=O)c2ccccn2)s1)c1cnc(C2CC2)nc1 [Compound 137, 2-Cyclopropyl-N-[4-(2-furyl)-5-(pyridin-2-ylcarbonyl)thiazol-2-yl]pyrimidine-5-carboxamide]
9 | 208 to 209 °C | Cc1cnc(C(=O)Nc2nc(-c3ccco3)c(C(=O)c3ccccn3)s2)cn1 [Compound 138, N-[4-(2-Furyl)-5-(pyridin-2-ylcarbonyl)thiazol-2-yl]-5-methylpyrazine-2-carboxamide]
10 | 170 to 180 °C (dec.) | O=C(Nc1nc(-c2ccco2)c(C(=O)c2ccccn2)s1)c1cc[nH]c(=O)c1 [Compound 139, N-[4-(2-Furyl)-5-(pyridin-2-ylcarbonyl)thiazol-2-yl]-2-oxo-1,2-dihydropyridine-4-carboxamide]
11 | 269 to 270 °C | O=C(Nc1nc(-c2ccco2)c(C(=O)c2ccccn2)s1)c1ccn(Cc2ccccc2)c(=O)c1 [Compound 140, 1-Benzyl-N-[4-(2-furyl)-5-(pyridin-2-ylcarbonyl)thiazol-2-yl]-2-oxo-1,2-dihydropyridine-4-carboxamide]
12 | 280 to 285 °C | Cn1ccc(C(=O)Nc2nc(-c3ccco3)c(C(=O)c3ccccn3)s2)cc1=O [Compound 141, N-[4-(2-Furyl)-5-(pyridin-2-ylcarbonyl)thiazol-2-yl]-1-methyl-2-oxo-1,2-dihydropyridine-4-carboxamide]
13 | 211 to 212 °C | O=C(Nc1nc(-c2ccco2)c(C(=O)c2ccccn2)s1)c1ccc(Br)o1 [Compound 143, 5-Bromo-N-[4-(2-furyl)-5-(pyridin-2-ylcarbonyl)thiazol-2-yl]furan-2-carboxamide]
14 | 278 to 283 °C (dec.) | O=C(Nc1nc(-c2ccco2)c(C(=O)c2ccccn2)s1)c1ccc([N+](=O)[O-])o1 [Compound 144, N-[4-(2-Furyl)-5-(pyridin-2-ylcarbonyl)thiazol-2-yl]-5-nitrofuran-2-carboxamide]
15 | 174 to 176 °C | Cc1ccoc1C(=O)Nc1nc(-c2ccco2)c(C(=O)c2ccccn2)s1 [Compound 145, N-[4-(2-Furyl)-5-(pyridin-2-ylcarbonyl)thiazol-2-yl]-3-methylfuran-2-carboxamide]
16 | 187 to 189 °C | O=C(Nc1nc(-c2ccco2)c(C(=O)c2ccccn2)s1)c1ccoc1 [Compound 146, N-[4-(2-Furyl)-5-(pyridin-2-ylcarbonyl)thiazol-2-yl]furan-3-carboxamide]
17 | 183 to 186 °C | Cc1occc1C(=O)Nc1nc(-c2ccco2)c(C(=O)c2ccccn2)s1 [Compound 147, N-[4-(2-Furyl)-5-(pyridin-2-ylcarbonyl)thiazol-2-yl]-2-methylfuran-3-carboxamide]
18 | 195 to 198 °C | Cc1cc(C(=O)Nc2nc(-c3ccco3)c(C(=O)c3ccccn3)s2)c(C)o1 [Compound 148, N-[4-(2-Furyl)-5-(pyridin-2-ylcarbonyl)thiazol-2-yl]-2,5-dimethylfuran-3-carboxamide]
19 | 197 to 199 °C | O=C(Nc1nc(-c2ccco2)c(C(=O)c2ccccn2)s1)c1cccs1 [Compound 149, N-[4-(2-Furyl)-5-(pyridin-2-ylcarbonyl)thiazol-2-yl]-thiophene-2-carboxamide]
20 | 223 to 230 °C | O=C(Nc1nc(-c2ccco2)c(C(=O)c2ccccn2)s1)c1ccno1 [Compound 150, N-[4-(2-Furyl)-5-(pyridin-2-ylcarbonyl)thiazol-2-yl]isoxazole-5-carboxamide]

Row | melting point | Structure (SMILES)
21 | 209 to 213 °C | Cc1cc(C(=O)Nc2nc(-c3ccco3)c(C(=O)c3ccccn3)s2)no1 [Compound 151, N-[4-(2-Furyl)-5-(pyridin-2-ylcarbonyl)thiazol-2-yl]-5-methylisoxazole-3-carboxamide]
22 | 213 to 218 °C | O=C(Nc1nc(-c2ccco2)c(C(=O)c2ccccn2)s1)c1ccc2snnc2c1 [Compound 152, N-[4-(2-Furyl)-5-(pyridin-2-ylcarbonyl)thiazol-2-yl]-1,2,3-benzothiadiazole-5-carboxamide]
23 | 230 to 231 °C | Cn1nnc2ccc(C(=O)Nc3nc(-c4ccco4)c(C(=O)c4ccccn4)s3)cc21 [Compound 153, N-[4-(2-Furyl)-5-(pyridin-2-ylcarbonyl)thiazol-2-yl]-1-methyl-1H-benzotriazole-6-carboxamide]
24 | 246 to 249 °C | CC(O)c1cc2cc(C(=O)Nc3nc(-c4ccco4)c(C(=O)c4ccccn4)s3)ccc2o1 (stereo not drawn) [Compound 154, N-[4-(2-Furyl)-5-(pyridin-2-ylcarbonyl)thiazol-2-yl]-2-(1-hydroxyethyl)-1-benzofuran-5-carboxamide]
25 | 230 to 231 °C | CC(C)(O)c1cc2cc(C(=O)Nc3nc(-c4ccco4)c(C(=O)c4ccccn4)s3)ccc2o1 [Compound 155, N-[4-(2-Furyl)-5-(pyridin-2-ylcarbonyl)thiazol-2-yl]-2-(1-hydroxy-1-methylethyl)-1-benzofuran-5-carboxamide]
26 | 234 to 235 °C | O=C(Nc1nc(-c2ccco2)c(C(=O)c2ccccn2)s1)c1cnc2occc2c1 [Compound 156, N-[4-(2-Furyl)-5-(pyridin-2-ylcarbonyl)thiazol-2-yl]-furo[2,3-b]pyridine-5-carboxamide]
27 | 158 to 159 °C | CCOC(=O)Nc1nc(-c2ccco2)c(C(=O)c2ccccn2)s1 [Compound 158, Ethyl N-[4-(2-furyl)-5-(pyridin-2-ylcarbonyl)thiazol-2-yl]carbamate]
28 | 152 to 153 °C | O=C(Nc1nc(-c2ccco2)c(C(=O)c2ccccn2)s1)OC1CCC1 [Compound 159, Cyclobutyl N-[4-(2-furyl)-5-(pyridin-2-ylcarbonyl)thiazol-2-yl]carbamate]
29 | 162 to 163 °C | O=C(Nc1nc(-c2ccco2)c(C(=O)c2ccccn2)s1)OC1CCCC1 [Compound 160, Cyclopentyl N-[4-(2-furyl)-5-(pyridin-2-ylcarbonyl)thiazol-2-yl]carbamate]
30 | 144 to 145 °C | O=C(Nc1nc(-c2ccco2)c(C(=O)c2ccccn2)s1)OC1CCOCC1 [Compound 161, 4-Tetrahydropyranyl N-[4-(2-furyl)-5-(pyridin-2-ylcarbonyl)thiazol-2-yl]carbamate]
31 | 222 to 225 °C | CN1CCC(OC(=O)Nc2nc(-c3ccco3)c(C(=O)c3ccccn3)s2)CC1 [Compound 162, 1-Methylpiperidine-4-yl N-[4-(2-furyl)-5-(pyridin-2-ylcarbonyl)thiazol-2-yl]carbamate]
32 | 158 to 159 °C | O=C(Nc1nc(-c2ccco2)c(C(=O)c2ccccn2)s1)OC(CF)CF [Compound 163, 2-Fluoro-1-(fluoromethyl)ethyl N-[4-(2-furyl)-5-(pyridin-2-ylcarbonyl)thiazol-2-yl]carbamate]
33 | 144 to 145 °C | O=C(c1ccccn1)c1sc(NC(=O)N2CCOCC2)nc1-c1ccco1 [Compound 164, N-[4-(2-Furyl)-5-(pyridin-2-ylcarbonyl)thiazol-2-yl]morpholine-4-carboxamide]
34 | 182 to 185 °C | O=C(c1ccccn1)c1sc(NC(=O)N2CCCCC2)nc1-c1ccco1 [Compound 165, N-[4-(2-Furyl)-5-(pyridin-2-ylcarbonyl)thiazol-2-yl]piperidine-1-carboxamide]
35 | 182 to 186 °C | CC(C)NC(=O)Nc1nc(-c2ccco2)c(C(=O)c2ccccn2)s1 [Compound 166, N-[4-(2-Furyl)-5-(pyridin-2-ylcarbonyl)thiazol-2-yl]-N′-isopropylurea]
36 | 123 to 124 °C | CC(C)(C)NC(=O)Nc1nc(-c2ccco2)c(C(=O)c2ccccn2)s1 [Compound 167, N-tert-Butyl-N′-[4-(2-furyl)-5-(pyridin-2-ylcarbonyl)thiazol-2-yl]urea]
37 | 150 to 151 °C | COCCNC(=O)Nc1nc(-c2ccco2)c(C(=O)c2ccccn2)s1 [Compound 168, N-[4-(2-Furyl)-5-(pyridin-2-ylcarbonyl)thiazol-2-yl]-N′-(2-methoxyethyl)urea]
38 | 169 to 170 °C | COCCCNC(=O)Nc1nc(-c2ccco2)c(C(=O)c2ccccn2)s1 [Compound 169, N-[4-(2-Furyl)-5-(pyridin-2-ylcarbonyl)thiazol-2-yl]-N′-(3-methoxypropyl)urea]
39 | 184 to 185 °C | O=C(CCl)Nc1nc(-c2ccco2)c(C(=O)c2ccccn2)s1 [Compound 170, 2-Chloro-N-[4-(2-furyl)-5-(pyridin-2-ylcarbonyl)thiazol-2-yl]acetamide]
